Patent US9695155B2, “Herbicidal substituted pyrimidinyloxy benzene compounds” (E. I. DU PONT DE NEMOURS AND COMPANY, priority 2013, dated 2017)

Legend:
morningglory = experiment: Test E preemergence; format: in vivo, Ipomoea coccinea; conditions: for Morningglory plant response rating: scale 0 to 100 (0 no effect, 100 complete control)
How it was run: (§1)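 Test chemicals formulated in a non-phytotoxic solvent mixture containing a surfactant were applied preemergence to seeds in silt loam soil or postemergence to plants at the 1- to 4-leaf stage in potting mix. After 14 to 21 days in a greenhouse, injury was visually rated against controls on a 0-100 scale (0 = no effect, 100 = complete control).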

sedge, umbrella = experiment: Test C flooded paddy test; format: in vivo, Cyperus difformis; conditions: Flood, scale 0 to 100 (0 no effect, 100 complete control), 13 to 15 days
How it was run: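 In-water treatment: compound dosed into 3 cm flood over soil, water level unchanged throughout. Controls run alongside; visual assessment at day 13–15.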

corn = experiment: Test E preemergence; format: in vivo, Zea mays; conditions: for Corn plant response rating: scale 0 to 100 (0 no effect, 100 complete control)
How it was run: as §1

palmer pigweed = experiment: Test E preemergence; format: in vivo, Amaranthus palmeri; conditions: for Pigweed, Palmer plant response rating: scale 0 to 100 (0 no effect, 100 complete control)
How it was run: as §1

large (Lg) crabgrass = experiment: Test E preemergence; format: in vivo, Digitaria sanguinalis; conditions: for Crabgrass, Large plant response rating: scale 0 to 100 (0 no effect, 100 complete control)
How it was run: as §1

soybean = experiment: Test E preemergence; format: in vivo, Glycine max; conditions: for Soybean plant response rating: scale 0 to 100 (0 no effect, 100 complete control)
How it was run: as §1

dayflower = experiment: Test E preemergence; format: in vivo, Commelina virginica; conditions: for Dayflower, VA plant response rating: scale 0 to 100 (0 no effect, 100 complete control)
How it was run: as §1

ragweed = experiment: Test E preemergence; format: in vivo, Ambrosia elatior; conditions: for Ragweed plant response rating: scale 0 to 100 (0 no effect, 100 complete control)
How it was run: as §1

nightshade = experiment: Test E preemergence; format: in vivo, Solanum ptycanthum; conditions: for Nightshade plant response rating: scale 0 to 100 (0 no effect, 100 complete control)
How it was run: as §1

barnyardgrass = experiment: Test E preemergence; format: in vivo, Echinochloa crus-galli; conditions: preemergence; for Barnyardgrass plant response rating: scale 0 to 100 (0 no effect, 100 complete control)
How it was run: as §1

fall panicum = experiment: Test E preemergence; format: in vivo, Panicum dichotomiflorum; conditions: for Panicum, Fall plant response rating: scale 0 to 100 (0 no effect, 100 complete control)
How it was run: as §1

velvetleaf = experiment: Test E preemergence; format: in vivo, Abutilon theophrasti; conditions: for Velvetleaf plant response rating: scale 0 to 100 (0 no effect, 100 complete control)
How it was run: as §1

kochia = experiment: Test A preemergence; format: in vivo, Kochia scoparia; conditions: 0 to 100 scale where 0 is no effect and 100 is complete control
How it was run: (§2)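 Pre- and postemergence greenhouse screen. Soil: loam + sand. Spray carrier: solvent mixture, non-phytotoxic, with surfactant. Post timing at 1–2 leaves, height 2–10 cm. Readout: visual injury on a 0–100 scale roughly 10 days after application, untreated plants as reference.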

blackgrass = experiment: Test A postemergence; format: in vivo, Alopecurus myosuroides
How it was run: as §2

galium = experiment: Test A postemergence; format: in vivo, Galium aparine
How it was run: as §2

[1] = 125 g ai/ha, scale 0 to 100, 0 no effect, 100 complete control
[2] = 31 g ai/ha, 0 to 100 scale, 0 no effect, 100 complete control
[3] = 125 g ai/ha, 0 to 100 scale where 0 is no effect and 100 is complete control

For `FC(F)c1cccc(Oc2ncc(Cl)cn2)c1-n1cc(Br)cn1` [Compound 194, 2-[2-(4-bromo-1H-pyrazol-1-yl)-3-(difluoromethyl)phenoxy]-5-chloropyrimidine], the “Morningglory plant response rating” value (morningglory; 31 g ai/ha) was 0, the “Morningglory plant response rating” value (morningglory; 62 g ai/ha) was 0 and the “Plant response rating, Sedge, Umbrella” value (sedge, umbrella; 31 g ai/ha) was 50. For the same compound, the “Plant response rating, Sedge, Umbrella” value (sedge, umbrella; 62 g ai/ha) was 75, the “Plant response rating, Sedge, Umbrella” value (sedge, umbrella; 125 g ai/ha) was 85 and the “Plant response rating, Sedge, Umbrella” value (sedge, umbrella; 250 g ai/ha) was 95. For the same compound, the “Corn plant response rating” value (corn; 31 g ai/ha) was 0, the “Corn plant response rating” value (corn; 62 g ai/ha) was 0 and the “Pigweed, Palmer plant response rating” value (palmer pigweed; 31 g ai/ha) was 98. For the same compound, the “Pigweed, Palmer plant response rating” value (palmer pigweed; 62 g ai/ha) was 100, the “Crabgrass, Large plant response rating” value (large (Lg) crabgrass; 31 g ai/ha) was 85 and the “Crabgrass, Large plant response rating” value (large (Lg) crabgrass; 62 g ai/ha) was 95. For the same compound, the “Soybean plant response rating” value (soybean; 31 g ai/ha) was 0, the “Soybean plant response rating” value (soybean; 62 g ai/ha) was 20 and the “Dayflower, VA plant response rating” value (dayflower; 31 g ai/ha) was 0. The “Dayflower, VA plant response rating” value (dayflower; 62 g ai/ha) was 40, the “Ragweed plant response rating” value (ragweed; 31 g ai/ha) was 0 and the “Ragweed plant response rating” value (ragweed; 62 g ai/ha) was 20. The “Nightshade plant response rating” value (nightshade; 31 g ai/ha) was 95, the “Nightshade plant response rating” value (nightshade; 62 g ai/ha) was 95 and the “Barnyardgrass plant response rating” value (barnyardgrass; 31 g ai/ha) was 0. For the same compound, the “Barnyardgrass plant response rating” value (barnyardgrass; 62 g ai/ha) was 0, the “Panicum, Fall plant response rating” value (fall panicum; 31 g ai/ha) was 80 and the “Panicum, Fall plant response rating” value (fall panicum; 62 g ai/ha) was 100. The “Velvetleaf plant response rating” value (velvetleaf; 31 g ai/ha) was 5 and the “Velvetleaf plant response rating” value (velvetleaf; 62 g ai/ha) was 25.
For `N#Cc1cnn(-c2c(CF)cccc2Oc2ncc(F)cn2)c1` [Compound 151], the “Plant response rating, Kochia” value (kochia; 31 g ai/ha, visual, approximately 10 days) was 80, the “Plant response rating, Kochia” value (kochia; 125 g ai/ha) was 90 and the “Morningglory plant response rating” value (morningglory; 31 g ai/ha) was 0. For the same compound, the “Morningglory plant response rating” value (morningglory; 62 g ai/ha) was 0, the “Plant response rating, Morningglory” value (morningglory; [1]) was 0 and the “Corn plant response rating” value (corn; 16 g ai/ha) was 0. For the same compound, the “Corn plant response rating” value (corn; 31 g ai/ha) was 0, the “Corn plant response rating” value (corn; 62 g ai/ha) was 0 and the “Plant response rating, Corn” value (corn; [1]) was 0. The “Pigweed, Palmer plant response rating” value (palmer pigweed; 31 g ai/ha) was 100, the “Pigweed, Palmer plant response rating” value (palmer pigweed; 62 g ai/ha) was 100 and the “Plant response rating, Pigweed, Palmer” value (palmer pigweed; [1]) was 100. The “Crabgrass, Large plant response rating” value (large (Lg) crabgrass; 16 g ai/ha) was 0, the “Crabgrass, Large plant response rating” value (large (Lg) crabgrass; 31 g ai/ha) was 5 and the “Crabgrass, Large plant response rating” value (large (Lg) crabgrass; 62 g ai/ha) was 60. For the same compound, the “Plant response rating, Crabgrass, Large” value (large (Lg) crabgrass; [1]) was 100, the “Soybean plant response rating” value (soybean; 31 g ai/ha) was 30 and the “Plant response rating, Soybean” value (soybean; [1]) was 75. The “Dayflower, VA plant response rating” value (dayflower; 16 g ai/ha) was 0, the “Dayflower, VA plant response rating” value (dayflower; 31 g ai/ha) was 10 and the “Dayflower, VA plant response rating” value (dayflower; 62 g ai/ha) was 65. For the same compound, the “Plant response rating, Dayflower, VA” value (dayflower; [1]) was 85, the “Ragweed plant response rating” value (ragweed; 31 g ai/ha) was 90 and the “Ragweed plant response rating” value (ragweed; 62 g ai/ha) was 95. For the same compound, the “Plant response rating, Ragweed” value (ragweed; [1]) was 100, the “Nightshade plant response rating” value (nightshade; 31 g ai/ha) was 30 and the “Nightshade plant response rating” value (nightshade; 62 g ai/ha) was 75. For the same compound, the “Plant response rating, Nightshade” value (nightshade; [1]) was 90, the “Barnyardgrass plant response rating” value (barnyardgrass; 16 g ai/ha) was 0 and the “Barnyardgrass plant response rating” value (barnyardgrass; 31 g ai/ha) was 20. For the same compound, the “Barnyardgrass plant response rating” value (barnyardgrass; 62 g ai/ha) was 10, the “Plant response rating, Barnyardgrass” value (barnyardgrass; [1]) was 75 and the “Plant response rating, Blackgrass” value (blackgrass; [2]) was 20. The “Blackgrass plant response rating” value (blackgrass; [3]) was 50, the “Panicum, Fall plant response rating” value (fall panicum; 31 g ai/ha) was 60 and the “Panicum, Fall plant response rating” value (fall panicum; 62 g ai/ha) was 100. For the same compound, the “Plant response rating, Panicum, Fall” value (fall panicum; [1]) was 98, the “Plant response rating, Galium” value (galium; [2]) was 10 and the “Galium plant response rating” value (galium; [3]) was 40. For the same compound, the “Velvetleaf plant response rating” value (velvetleaf; 31 g ai/ha) was 95, the “Velvetleaf plant response rating” value (velvetleaf; 62 g ai/ha) was 100 and the “Plant response rating, Velvetleaf” value (velvetleaf; [1]) was 100.
